In BigSolDB 2.1:

CC(C)N1C(=O)N(c2ccccc2)CSC1=NC(C)(C)C
solubility (mole fraction)
Details | 273.15 K | 278.15 K | 283.15 K | 288.15 K | 293.15 K | 298.15 K | 303.15 K | 308.15 K | 313.15 K | 318.15 K
in DMF | 0.0306 | 0.0389 | 0.0493 | 0.0608 | 0.0725 | 0.0871 | 0.104 | 0.122 | 0.141 | 0.162
in acetone | 0.03 | 0.0361 | 0.0427 | 0.0504 | 0.0593 | 0.0699 | 0.0814 | 0.096 | 0.114 | 0.134
in acetonitrile | 0.00534 | 0.00774 | 0.0101 | 0.0133 | 0.0171 | 0.0219 | 0.0284 | 0.0354 | 0.0448 | 0.0564
in ethanol | 0.00539 | 0.007 | 0.00917 | 0.0116 | 0.0146 | 0.0182 | 0.0228 | 0.0276 | 0.0342 | 0.0425
in ethyl acetate | 0.0372 | 0.0465 | 0.0561 | 0.0679 | 0.0815 | 0.0971 | 0.116 | 0.136 | 0.16 | 0.187
in isopropanol | 0.00586 | 0.00785 | 0.0103 | 0.0131 | 0.0165 | 0.0207 | 0.0254 | 0.031 | 0.0376 | 0.0454
in methanol | 0.00377 | 0.00497 | 0.0064 | 0.00797 | 0.00998 | 0.0123 | 0.0154 | 0.0184 | 0.0225 | 0.0272
in n-butanol | 0.00627 | 0.00908 | 0.0127 | 0.0167 | 0.0218 | 0.0281 | 0.0364 | 0.045 | 0.0577 | 0.0714
in n-octanol | 0.00824 | 0.0114 | 0.0152 | 0.0197 | 0.0251 | 0.0321 | 0.0404 | 0.0505 | 0.063 | 0.0789
in n-propanol | 0.00564 | 0.00798 | 0.011 | 0.0148 | 0.019 | 0.0254 | 0.0323 | 0.0414 | 0.0528 | 0.0668
in toluene | 0.053 | 0.0651 | 0.0782 | 0.0924 | 0.11 | 0.128 | 0.15 | 0.172 | 0.198 | 0.227
in water | 2.84e-05 | 3.48e-05 | 4.18e-05 | 5.08e-05 | 6.05e-05 | 7.26e-05 | 8.54e-05 | 0.000101 | 0.00012 | 0.000144
